Assay results from US20230027066A1 (Urovant Sciences GmbH, priority 2019, published 2023).

Key:
[1] = system: men and women with overactive bladder; experiment: 40-week extension study (52 weeks), efficacy; assay type: in vivo, human; details: for UUI Episodes 75% Responders at Week 52 / UUI Episodes 100% Responders at Week 52 / Urgency Episodes 50% Responders at Week 52: multiple imputation
Description: All CFB calculations used the parent study Baseline value.

[2] = system: men and women with overactive bladder; experiment: Phase 3 study (75 mg), patient-reported outcomes (OAB-q LF, PGI); assay type: in vivo, human; set-up: OAB-q sleep score, improvement greater than placebo / HRQL Total Score, improvement greater than placebo / OAB-q HRQL Total Score, Active - Placebo LS Means Difference: scale not given here
Description: Patients completed paper questionnaires at the site at the start of each required study visit to assess patient-perceived symptom relief, symptom bother, and health-related quality of life at the study visits. […] These included the following questionnaires:
1. Global Impression Items include Patient Global Impression of Severity (PGI-Severity), Patient Global Impression of Control (PGI-Control), Patient Global Impression of Frequency (PGI-Frequency), Patient Global Impression of Leakage (PGI-Leakage), and Patient Global Impression of Change (PGI-Change).
2. Overactive Bladder Questionnaire (OAB-q long form [OAB-q LF], 1-week recall) is a 33-item patient-administered, disease-specific questionnaire that includes a Health-Related QoL (HRQL) scale (25 items) and a Symptom Bother Scale (8 items). The HRQL is a multidomain concept that represents the patient's general perception of the effect of illness and treatment on physical, psychological, and social aspects of life. […] In the present study, the HRQL scale is divided into 4 subscales: Coping, Concern/Worry, Sleep, and Social Interaction. The Coping subscale (also referred to as the coping domain score) was a secondary endpoint, with items scored from 1 (none of the time) to 6 (all the time), with higher scores indicating better QoL. The HRQL total score is calculated by summating the individual HRQL subscale scores. The Symptom Bother Scale items are scored from 1 (not at all) to 6 (a very great deal), with higher Symptom Bother scores indicating greater symptom severity. The instrument was developed and validated in both continent and incontinent OAB patients, including both men and women.
With the exception of the symptom bother score, a responder was defined as having a change from baseline ≥10. For symptom bother score, a responder was defined as having a change from baseline […]. A higher proportion of patients represented a favorable response.

[3] = 40-Week treatment group, Full Analysis Set Extension
[4] = 52-Week treatment group, Full Analysis Set Extension
[5] = 50% Total Incontinence Responders, Week 12
[6] = Week 12, responder = change from baseline ≥10

## Cc1ccc(O)c([C@H](CCN(C(C)C)C(C)C)c2ccccc2)c1 [Tolterodine ER, tolterodine, reference compound]
[1]; 40-Week arm
  Micturitions, Change from Baseline at Week 52, Mean: −2.6
  UUI Episodes, Change from Baseline at Week 52, Mean: −1.5
  UUI Episodes, Week 52 Mean: 1.1
  Urgency Episodes, Change from Baseline at Week 52, Mean: −3.5
  Urgency Episodes, Week 52 Mean: 3.9
[1]; 40-Week arm, Full Analysis Set Extension
  Micturitions, Week 52 Mean: 8.8
[1]; [3]
  Total urinary incontinence episodes, Change from Baseline Mean at Week 52: −1.9
  Total urinary incontinence episodes, Week 52 Mean: 1.2
[1]; 40-Week treatment group
  UUI Episodes 75% Responders at Week 52: 54.0%
  UUI Episodes 100% Responders at Week 52: 37.8%
  Urgency Episodes 50% Responders at Week 52: 50.1%
[1]; 52-Week arm
  Micturitions, Change from Baseline at Week 52, Mean: −2.3
  UUI Episodes, Change from Baseline at Week 52, Mean: −1.7
  UUI Episodes, Week 52 Mean: 1.4
  Urgency Episodes, Change from Baseline at Week 52, Mean: −3.5
  Urgency Episodes, Week 52 Mean: 4.7
[1]; 52-Week arm, Full Analysis Set Extension
  Micturitions, Week 52 Mean: 9.0
[1]; [4]
  Total urinary incontinence episodes, Change from Baseline Mean at Week 52: −2.0
  Total urinary incontinence episodes, Week 52 Mean: 1.7
[1]; 52-Week treatment group
  UUI Episodes 75% Responders at Week 52: 54.4%
  UUI Episodes 100% Responders at Week 52: 34.2%
  Urgency Episodes 50% Responders at Week 52: 51.0%
[1]; 52-Weeks arm, Full Analysis Set Extension for Incontinence
  UUI Episodes, Change from Baseline LS Mean (SE) at Week 52: −1.7 (0.17)
[1]; 52-Weeks arm, mixed model for repeated measures
  Micturitions, Change from Baseline LS Mean (SE) at Week 52: −2.0 (0.26)
[1]; 52-Weeks treatment, Full Analysis Set Extension
  Urgency episodes, Change from Baseline LS Mean (SE) at Week 52: −3.2 (0.37)
[1]; 52-Weeks treatment, Full Analysis Set Extension for Incontinence
  Total urinary incontinence episodes, Change from Baseline LS Mean (SE) at Week 52: −1.9 (0.19)
[1]; 52-week treatment, Table 97
  % Responders, 50% Reduction in Total Inc at Week 52: 62%
  % Responders, 50% Reduction in UE at Week 52: 51%
  % Responders, 75% Reduction in UUI at Week 52: 54%
  % Responders, 100% Reduction in UUI at Week 52: 34%
  Micturitions, Least Squares Means CFB at Week 52: −2.0
  Total Incontinence Episodes, Least Squares Means CFB at Week 52: −1.9
  UUI Episodes, Least Squares Means CFB at Week 52: −1.7
  Urgency Episodes (UE), Least Squares Means CFB at Week 52: −3.2
  Volume Voided, mean change from baseline at Week 52: 9 mL
[2]; [5]
  OAB-q Coping Subscore, Change from baseline at week 12, LS Means (SE): 18.5 (1.49)
  OAB-q Coping Subscore, Mean: 81.66 (20.882)
  OAB-q Symptom Bother Subscore, Change from baseline at week 12, LS Means: −21.7
  OAB-q Symptom Bother Subscore, Mean: 24.70
[2]; 75% UUI Responders, Week 4
  Change from Baseline in PGI-Control, LS Mean: −0.7 (0.07)
  PGI-Control, Mean (SD): 2.51 (0.907)
[2]; 75% UUI Responders, Week 8
  Change from Baseline in PGI-Control, LS Mean: −1.0 (0.07)
  PGI-Control, Mean (SD): 2.18 (0.861)
[2]; 75% UUI Responders, Week 12
  Change from Baseline in PGI-Control, LS Mean: −1.1 (0.07)
  OAB-q Coping Subscore, Change from baseline at week 12, LS Means (SE): 18.4 (1.73)
  OAB-q Coping Subscore, Mean (SD): 83.05 (20.409)
  OAB-q Symptom Bother Subscore, Change from Baseline at Week 12, LS Means (SE): −22.7 (1.60)
  OAB-q Symptom Bother Subscore, Mean (SD): 22.59 (17.919)
  PGI-Control, Mean (SD): 2.05 (0.862)
[2]; Week 12
  OAB-q Concern Subscore, Week 12 Mean (SD): 80.93 (21.467)
  OAB-q Concern responders, Difference from Placebo: 7.2
  OAB-q Concern, Active - Placebo LS Means Difference: 4.4
  OAB-q Concern, change from baseline LS Means (SE): 14.7(1.32)
  OAB-q Coping Score, Active - Placebo LS Means Difference: 3.1
  OAB-q Coping Score, change from baseline LS Means (SE): 15.9 (1.39)
  OAB-q Coping Sub score, Week 12 Mean (SD): 77.77 (23.439)
  OAB-q Coping responders, Difference from Placebo: 6.9
  OAB-q HRQL Total Score, Active - Placebo LS Means Difference: 2.9
  OAB-q HRQL Total Score, change from baseline LS Means (SE): 13.6 (1.19)
  OAB-q Sleep Subscore, Week 12 Mean (SD): 74.25 (23.140)
  OAB-q Sleep responders, Difference from Placebo: −0.5
  OAB-q Sleep, Active - Placebo LS Means Difference: 2.6
  OAB-q Sleep, change from baseline LS Means (SE): 12.9 (1.42)
  OAB-q Social Interaction Subscore, Week 12 Mean (SD): 88.35 (18.214)
  OAB-q Social Interaction responders, Difference from Placebo: 2.2
  OAB-q Social Interaction, Active - Placebo LS Means Difference: 0.6
  OAB-q Social Interaction, change from baseline LS Means (SE): 9.4 (1.03)
  OAB-q Symptom Bother Subscore, Week 12 Mean (SD): 29.33 (19.568)
  OAB-q Symptom Bother responders, Difference from Placebo: 8.2
  OAB-q Symptom Bother, Active - Placebo LS Means Difference: −4.6
  OAB-q Symptom Bother, change from baseline LS Means (SE): −17.4 (1.31)
  OAB-q Total HRQL Score, Week 12 Mean (SD): 80.07 (19.826)
  OAB-q Total HRQL responders, Difference from Placebo: 3.1
[2]; Week 12, responder = change from baseline ≤−10
  OAB-q Symptom Bother responders, %: (66.5) %
[2]; [6]
  OAB-q Concern responders, %: (57.0) %
  OAB-q Coping responders, %: (61.3) %
  OAB-q Sleep responders, %: (51.3) %
  OAB-q Social Interaction responders, %: (37.4) %
  OAB-q Total HRQL responders, %: (51.8) %
[2]; Week 12, vs placebo
  OAB-q Concern responders, Odds Ratio: 1.6
  OAB-q Coping responders, Odds Ratio: 1.5
  OAB-q Sleep responders, Odds Ratio: 1.1
  OAB-q Social Interaction responders, Odds Ratio: 1.2
  OAB-q Symptom Bother responders, Odds Ratio: 1.6
[2]; Week 12, vs placebo, logistic regression
  OAB-q Total HRQL responders, Odds Ratio: 1.3
